Test results reported in paper PMC4904262 (ACS Medicinal Chemistry Letters, 2016).
Where two headings read alike, the source gives them in different places. One block for each compound: values may come before it.

Legend:
Caco-2 = settings: human
in vitro [1] = settings: human, microsomes
in vitro [2] = settings: mouse, microsomes
[3] = mouse
in vitro [4] = settings: rat, microsomes
aldehyde oxidase [5] = target: T1, aldehyde oxidase (Homo sapiens, UniProt Q06278); test: in vitro; settings: cytosol
T1 sequence (Q06278 whole entry): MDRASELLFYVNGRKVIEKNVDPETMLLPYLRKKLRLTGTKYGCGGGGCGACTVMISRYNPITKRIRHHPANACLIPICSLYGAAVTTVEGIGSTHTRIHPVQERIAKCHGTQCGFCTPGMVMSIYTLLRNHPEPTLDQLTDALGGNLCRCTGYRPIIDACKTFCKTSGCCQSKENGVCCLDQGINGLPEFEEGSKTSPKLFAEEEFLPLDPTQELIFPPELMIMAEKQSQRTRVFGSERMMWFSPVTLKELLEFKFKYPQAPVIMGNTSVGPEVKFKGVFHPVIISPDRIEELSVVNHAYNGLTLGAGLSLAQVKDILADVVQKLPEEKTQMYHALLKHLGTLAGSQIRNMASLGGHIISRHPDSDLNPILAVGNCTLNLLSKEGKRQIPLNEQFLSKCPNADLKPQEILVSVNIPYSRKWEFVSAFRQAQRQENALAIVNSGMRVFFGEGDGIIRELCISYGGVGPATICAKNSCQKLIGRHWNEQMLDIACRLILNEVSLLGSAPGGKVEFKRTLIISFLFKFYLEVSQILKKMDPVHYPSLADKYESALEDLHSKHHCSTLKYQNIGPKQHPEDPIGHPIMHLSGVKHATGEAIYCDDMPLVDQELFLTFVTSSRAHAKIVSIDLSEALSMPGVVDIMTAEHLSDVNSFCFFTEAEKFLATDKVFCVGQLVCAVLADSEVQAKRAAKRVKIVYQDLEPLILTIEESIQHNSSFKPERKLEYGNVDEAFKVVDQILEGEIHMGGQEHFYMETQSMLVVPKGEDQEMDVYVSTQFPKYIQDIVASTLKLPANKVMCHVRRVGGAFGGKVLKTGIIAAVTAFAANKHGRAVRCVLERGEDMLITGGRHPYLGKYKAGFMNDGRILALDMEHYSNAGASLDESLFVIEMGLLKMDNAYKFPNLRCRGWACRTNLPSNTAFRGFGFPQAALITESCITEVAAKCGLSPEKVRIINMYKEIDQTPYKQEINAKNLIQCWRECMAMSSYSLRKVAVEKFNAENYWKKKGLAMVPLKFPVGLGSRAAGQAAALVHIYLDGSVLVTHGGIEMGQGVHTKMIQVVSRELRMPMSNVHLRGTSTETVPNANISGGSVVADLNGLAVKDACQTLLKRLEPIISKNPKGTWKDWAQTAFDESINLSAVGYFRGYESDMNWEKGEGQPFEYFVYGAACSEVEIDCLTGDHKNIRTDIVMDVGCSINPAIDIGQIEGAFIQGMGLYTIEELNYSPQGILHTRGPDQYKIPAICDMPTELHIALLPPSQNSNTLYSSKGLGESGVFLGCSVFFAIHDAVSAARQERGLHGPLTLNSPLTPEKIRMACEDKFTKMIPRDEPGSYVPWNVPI

WNT signaling [6] = settings: read-out: 7dF3 IC50; Figure 1; cited from earlier work
CDK19 = settings: read-out: CDK19 IC50; Figure 1; cited from earlier work
WNT signaling [7] = settings: for fold less active in the cell-based assay: relative to 4; for drop off in the cell-based assay: cell-based versus CDK8 affinity
aldehyde oxidase [8] = target: T1, aldehyde oxidase
in vitro [9] = settings: human, Caco-2
[10] = human
WNT signaling [11] = test: cells; settings: 7dF3, read-out: 7dF3 IC50
CDK8 = CDK8 (Homo sapiens, UniProt P49336); format: binding; settings: versus parent analogue
Sequence of CDK8 (P49336 whole entry): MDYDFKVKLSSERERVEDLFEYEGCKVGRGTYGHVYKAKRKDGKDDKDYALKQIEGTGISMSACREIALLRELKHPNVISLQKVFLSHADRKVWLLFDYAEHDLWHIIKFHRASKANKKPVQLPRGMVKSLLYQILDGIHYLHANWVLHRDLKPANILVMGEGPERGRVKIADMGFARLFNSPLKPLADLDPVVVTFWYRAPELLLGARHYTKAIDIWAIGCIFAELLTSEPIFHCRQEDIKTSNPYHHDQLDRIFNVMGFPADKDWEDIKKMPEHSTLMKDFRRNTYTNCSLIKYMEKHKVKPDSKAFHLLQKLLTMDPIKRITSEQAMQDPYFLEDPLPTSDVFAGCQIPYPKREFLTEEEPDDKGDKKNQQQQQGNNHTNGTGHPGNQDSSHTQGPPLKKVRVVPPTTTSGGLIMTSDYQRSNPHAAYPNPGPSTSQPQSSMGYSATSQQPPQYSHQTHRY
Sequence of CDK8 (P24863 whole entry, further chain): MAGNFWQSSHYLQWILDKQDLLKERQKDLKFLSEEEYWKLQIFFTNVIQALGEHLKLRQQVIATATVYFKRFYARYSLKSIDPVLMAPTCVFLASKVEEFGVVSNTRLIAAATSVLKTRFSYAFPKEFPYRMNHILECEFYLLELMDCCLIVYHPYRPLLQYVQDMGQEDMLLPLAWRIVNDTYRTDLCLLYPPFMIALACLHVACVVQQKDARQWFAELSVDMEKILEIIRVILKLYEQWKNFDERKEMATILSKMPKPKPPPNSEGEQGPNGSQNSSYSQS

- Caco-2 ER (Caco-2): 145
- Caco-2 PappA-B (Caco-2): 0.96 × 10^–6 cm/s
- microsomal CLint (in vitro [1]): < 10 µL/min/mg
- microsomal CLint at 1 µM (in vitro [2]): 36 µL/min/mg
- Cl ([3]; Balb/C, in vivo): 58.5 mL/min/kg
- F ([3]; Balb/C, in vivo): <5%
- Vss ([3]; Balb/C, in vivo): 2.49 L/kg
- microsomal CLint (in vitro [4]): < 10 µL/min/mg
- CLint scaled at 1 µM (aldehyde oxidase [5]): < 4.2 mL/min/kg
SMILES: Cn1cc(-c2ccc(-c3cnc(N)c4ccc(C(=O)N5CCNCC5)nc34)cc2)cn1 [Compound 49]

SMILES: Cn1ncc2cc(-c3cnc(N)c(Cl)c3N3CCC4(CCNC4=O)CC3)ccc21 [Compound 2]
- IC50 (WNT signaling [6]): 11.8 ± 17.9 nM
- IC50 (CDK19): 2.6 ± 0.4 nM

SMILES: CC(=O)Nc1ccc2cncc(-c3ccc(-c4cnn(C)c4)cc3)c2n1 [Compound 18]
- microsomal CLint at 1 µM (in vitro [1]): 26 µL/min/mg
- microsomal CLint at 1 µM (in vitro [2]): 168 µL/min/mg
- microsomal CLint at 1 µM (in vitro [4]): 247 µL/min/mg
- fold less active in the cell-based assay (WNT signaling [7]): 10 fold

SMILES: Cn1cc(-c2ccc(-c3cncc4ccc(N5CCCC5=O)nc34)cc2)cn1 [Compound 19]
- microsomal CLint at 1 µM (in vitro [1]): 143 µL/min/mg
- microsomal CLint at 1 µM (in vitro [2]): 392 µL/min/mg
- microsomal CLint at 1 µM (in vitro [4]): 253 µL/min/mg
- fold less active in the cell-based assay (WNT signaling [7]): 10 fold
- CLint scaled at 1 µM (aldehyde oxidase [5]): 418 mL/min/kg

- microsomal CLint (in vitro [1]): < 10 µL/min/mg
- % of parent compd remaining after 45 min (aldehyde oxidase [8]; human, cytosol, 0.75 h, 1 µM): 20%
- microsomal CLint at 1 µM (in vitro [2]): 23 µL/min/mg
- in vivo clearance [3]: exceeded liver blood flow
- Cl ([3]; in vivo): Not measurable
- F ([3]; in vivo): Not measurable
- Vd ([3]; in vivo): Not measurable
- Papp A→B (in vitro [9]): 5.94 ×10⁻⁶ cm/s
- efflux ratio (in vitro [9]): 7.26
- microsomal CLint at 1 µM (in vitro [4]): 21 µL/min/mg
SMILES: CNC(=O)c1ccc2cncc(-c3ccc4c(c3)CS(=O)(=O)N4)c2n1 [Compound 8]
- main metabolite [10]: oxidation to give the C5-OH compound 37 as the main metabolite

SMILES: Cn1cc(-c2ccc(-c3cncc4ccc(S(N)(=O)=O)cc34)cc2)cn1 [Compound 36]
- microsomal CLint at 1 µM (in vitro [1]): 47 µL/min/mg
- microsomal CLint at 1 µM (in vitro [2]): 125 µL/min/mg
- microsomal CLint at 1 µM (in vitro [4]): 220 µL/min/mg
- drop off in the cell-based assay (WNT signaling [7]): 12 fold

- microsomal CLint at 1 µM (in vitro [1]): 15 µL/min/mg
- AO substrate (Enzyme assay) (aldehyde oxidase [8]): Yes
- microsomal CLint at 1 µM (in vitro [2]): 76 µL/min/mg
- F ([3]; Balb/C, in vivo): 16%
- Vss ([3]; Balb/C, in vivo): 2.7 L/kg
- in vivo clearance [3]: exceeded liver blood flow
- Papp A→B (in vitro [9]): 38.3 ×10⁻⁶ cm/s
- efflux ratio (in vitro [9]): 1.02
- microsomal CLint at 1 µM (in vitro [4]): 142 µL/min/mg
- CLint scaled at 1 µM (aldehyde oxidase [5]): 598 mL/min/kg
SMILES: CNC(=O)c1ccc2cncc(-c3ccc4c(c3)CS(=O)(=O)N4C)c2n1 [Compound 7]

SMILES: CNC(=O)c1ccc2c(N)ncc(-c3ccc4c(c3)CS(=O)(=O)N4C)c2n1 [Compound 48]
- microsomal CLint (in vitro [1]): 18 µL/min/mg
- AO substrate (Enzyme assay) (aldehyde oxidase [8]): No
- microsomal CLint (in vitro [2]): 94 µL/min/mg
- Cl ([3]; Balb/C, in vivo): 213 mL/min/kg
- F ([3]; Balb/C, in vivo): 29%
- Vss ([3]; Balb/C, in vivo): 5.64 L/kg
- microsomal CLint (in vitro [4]): 24 µL/min/mg
- IC50 (WNT signaling [11]): 9.3 ± 2.3 nM
- CLint scaled at 1 µM (aldehyde oxidase [5]): 15 mL/min/kg

SMILES: Cn1cc(-c2ccc(-c3cncc(Cl)c3N3CCC4(CCNC4=O)CC3)cc2)cn1 [Compound 1]
- IC50 (WNT signaling [6]): 5 ± 1 nM
- IC50 (CDK19): 6 ± 1 nM

SMILES: Cn1cc(-c2ccc(-c3cncc4ccc(N5CCCS5(=O)=O)cc34)cc2)cn1 [Compound 35]
- microsomal CLint at 1 µM (in vitro [1]): 54 µL/min/mg
- microsomal CLint at 1 µM (in vitro [2]): 213 µL/min/mg
- microsomal CLint at 1 µM (in vitro [4]): 81 µL/min/mg
- drop off in the cell-based assay (WNT signaling [7]): 7 fold

SMILES: Cn1cc(-c2ccc(-c3cnc(N)c4ccc(-c5nccn5C)nc34)cc2)cn1 [Compound 57]
- drop in CDK8 affinity (CDK8): 225 fold
